From patent US5043332A, “Novel 11β-substituted -19-nor-steriods” (priority 1981, dated 1991) come the findings set out here.

The target in this assay is T1, Mineralcorticoidal receptor of kidneys of the rat (Rattus norvegicus, UniProt P22199).
T1 construct: from tissue; host or cells: rat kidney, 105,000 g supernatant (adrenalectomized male Sprague-Dawley rats)
T1 sequence (P22199 1-981): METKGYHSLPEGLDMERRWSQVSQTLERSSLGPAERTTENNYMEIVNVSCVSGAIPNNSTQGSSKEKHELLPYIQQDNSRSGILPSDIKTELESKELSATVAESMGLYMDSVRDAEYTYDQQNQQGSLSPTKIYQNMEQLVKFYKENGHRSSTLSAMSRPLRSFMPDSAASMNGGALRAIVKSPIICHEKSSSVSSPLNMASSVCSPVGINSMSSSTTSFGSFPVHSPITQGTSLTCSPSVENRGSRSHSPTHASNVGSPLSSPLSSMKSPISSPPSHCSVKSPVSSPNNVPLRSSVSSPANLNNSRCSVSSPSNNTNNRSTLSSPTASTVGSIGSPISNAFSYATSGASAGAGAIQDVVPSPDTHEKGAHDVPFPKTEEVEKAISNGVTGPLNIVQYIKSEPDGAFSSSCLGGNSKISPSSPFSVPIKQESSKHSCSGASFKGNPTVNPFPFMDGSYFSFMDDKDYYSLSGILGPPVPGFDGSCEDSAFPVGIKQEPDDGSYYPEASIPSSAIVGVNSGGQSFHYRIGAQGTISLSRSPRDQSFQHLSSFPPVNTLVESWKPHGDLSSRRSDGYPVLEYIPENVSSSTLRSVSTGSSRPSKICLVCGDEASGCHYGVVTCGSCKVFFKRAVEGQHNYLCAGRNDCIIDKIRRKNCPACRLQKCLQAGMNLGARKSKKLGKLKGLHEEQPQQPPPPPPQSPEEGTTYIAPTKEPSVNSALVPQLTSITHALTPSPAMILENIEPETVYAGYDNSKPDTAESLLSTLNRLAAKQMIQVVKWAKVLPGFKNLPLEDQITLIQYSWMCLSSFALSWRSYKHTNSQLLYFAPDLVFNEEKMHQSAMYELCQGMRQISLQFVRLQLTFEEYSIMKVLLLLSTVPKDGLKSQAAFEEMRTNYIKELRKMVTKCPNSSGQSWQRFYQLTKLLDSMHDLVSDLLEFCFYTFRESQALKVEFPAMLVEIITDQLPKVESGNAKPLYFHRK
The experiment in a line: Mineralcorticoidal receptor binding (displacement of tritiated aldosterone). On the procedure:
A. Mineralcorticoidal receptor of kidneys of the rat
Male Sprague-Dawley EOPS rats weighing 140 to 160 g surrenalectomized 4 to 8 days previously were killed and their kidneys were perfused in situ with 50 ml of a buffer (10 mM of Tris 0.25M of Saccharose and sufficient hydrochloric acid for a pH of 7.4). The kidneys were then removed, decapsulated and homogenized at 0° C. with a polytetrafluoroethylene-glass Potter (1 g of tissue per 3 ml of buffer). The homogenate was centrifuged for 10 minutes at 800 g at 9° C.
After elimination of the fixation of tritiated aldosterone with glucocorticoid receptor, 21-methyl-Δ^1,4,6 -pregnatriene-20-yne-11β,17β-diol-3-one fixed only with the glucocorticoid receptor was added to the supernatant at a final concentration of 10^-6 M. The suprenatant was ultracentrifuged at 105,000 g for 60 minutes and 0° C. and aliquoits of the resulting surnageant were incubated at 0° C. with a constant concentration (T) of tritiated aldosterone in the presence of increasing concentrations (0-2500×10^-9 M) of cold aldosterone or the cold test product. After a time (t) of incubation, the concentration of tied tritiated aldosterone (B) was measured by the technique of adsoprtion on carbon dextran.
The calculation of the relative affinity of […] (ARL) was identical for all of the above receptor tests. One traced the following two curves: the percentage of tied tritiated hormone B/T as a function of the logarithm of the cold hormone concentration and B/T as a function of the logarithm of the concentration of the cold test product. One determined the line of the equation. [formula]
The intersection of the I50 line and the curves permits one to determine the concentrations of the cold hormone of the reference (CH) and the cold test compound (CX) which inhibit by 50% the tieing of tritiated hormone with the receptor. The relative affinity of tieing (ARL) of the test product was determined by the equation: [formula]

The mark [1] stands for this setting: second table, incubation 24 H at 0° C.

On to `C=C(C)C#C[C@]1(O)CC[C@H]2[C@@H]3CCC4=CC(=O)CCC4=C3[C@@H](c3ccc(N(C)C)cc3)C[C@@]21C` [Example 23, 11β-[4-(N,N-dimethylamino)-phenyl]-23-methyl-19,21-dinor-17α-Δ^4,9,23-cholatriene-20-yn-17β-ol-3-one], for which the “relative affinity of tieing (ARL), Mineralocorticoid” value (“relative affinity of tieing (ARL)” for short) under setting [1] was 0.

As to `CC#C[C@]1(O)CC[C@H]2[C@@H]3CCC4=C(CCC(=O)C4)[C@H]3[C@@H](c3ccc(N(C)C)cc3)C[C@@]21C` [Example 10, 11β-(4-dimethylaminophenyl)-17α-(prop-1-ynyl)-Δ^5(10) -estrene-17β-ol-3-one], the “relative affinity of tieing (ARL)” value (incubation 1 H at 0° C.) is recorded as 1,5 and the “relative affinity of tieing (ARL)” value (incubation 24 H at 0° C.) is < 0,1.

With `CC#C[C@]1(O)CC[C@H]2[C@@H]3CCC4=CC(=O)[C@H](C)CC4=C3[C@@H](c3ccc(N(C)C)cc3)C[C@@]21C` [5 (2α), 2α-methyl-11β-(4-dimethylaminophenyl)-17α-(prop-1-ynyl)-Δ^4,9-estradiene-17β-ol-3-one], the “relative affinity of tieing (ARL)” value runs as follows: (incubation 1 H at 0° C.) < 0,1; (incubation 24 H at 0° C.) < 0,1.

As for `CN(C)c1ccc([C@H]2C[C@@]3(C)[C@@H](CC[C@@]3(O)C#C[Si](C)(C)C)[C@@H]3CCC4=CC(=O)CCC4=C32)cc1` [Example 44, 11β-[4-(N,N-dimethylamino)-phenyl]-21-trimethylsilyl-19-nor-17α-Δ^4,9-pregnadiene-20-yne-17β-ol-3-one], the “relative affinity of tieing (ARL)” value under setting [1] was found to be 0.

`CC#C[C@]1(OC(C)=O)CC[C@H]2[C@@H]3CCc4cc(O)ccc4[C@H]3[C@@H](c3ccc(N(C)C)cc3)C[C@@]21C` [2 (17 OAc), 11β-(4-dimethylaminophenyl)-17α-(prop-1-ynyl)-17β-acetoxy-Δ^1,3,5(10) -estratriene-3-ol]: the “relative affinity of tieing (ARL)” value was < 0,1 (incubation 1 H at 0° C.) and < 0,1 (incubation 24 H at 0° C.).

For `CC#C[C@]1(O)CC[C@H]2[C@@H]3CCC4=CC(=O)[C@@H](C)CC4=C3[C@@H](c3ccc(N(C)C)cc3)C[C@@]21C` [5 (2β), 2-methyl-11β-(4-dimethylaminophenyl)-17α-(prop-1-ynyl)-Δ^4,9-estradiene-17β-ol-3-one], the “relative affinity of tieing (ARL)” value is listed as < 0,1 (incubation 1 H at 0° C.) and < 0,1 (incubation 24 H at 0° C.).

Take `C#C[C@@]1(O)CC[C@H]2[C@@H]3CCC4=CC(=O)CCC4=C3[C@@H](c3ccc(N(C)C)cc3)C[C@@]21C` [Example 21, 11β-[4-(N,N-dimethylamino)-phenyl]-17β-ethynyl-Δ^4,9-estradiene-17α-ol-3-one]: under setting [1], the “relative affinity of tieing (ARL)” value is recorded as 0,8.

In the case of `CC#C[C@]1(O)CC[C@H]2[C@@H]3CCC4=CC(=O)C(C)(C)CC4=C3[C@@H](c3ccc(N(C)C)cc3)C[C@@]21C` [Example 1, 2,2-dimethyl-11β-(4-dimethylaminophenyl)-17α-(prop-1-ynyl)-Δ^4,9-estradiene-17β-ol-3-one], the “relative affinity of tieing (ARL)” value reads like this: (incubation 1 H at 0° C.) < 0,1; (incubation 24 H at 0° C.) < 0,1.

Take `C#C[C@]1(O)CC[C@H]2[C@@H]3CCC4=CC(=O)CCC4=C3[C@@H](c3ccc(N(C)C)cc3)C[C@@]21C` [Example 32, 11β-[4-(N,N-dimethylamino)-phenyl]-17α-ethynyl-Δ^4,9-estradiene-17β-ol-3-one]: under setting [1], the “relative affinity of tieing (ARL)” value is 0.

Turning to `CN(C)c1ccc([C@H]2C[C@@]3(C)[C@@H](CC[C@@]3(O)C#CCl)[C@@H]3CCC4=CC(=O)CCC4=C32)cc1` [Example 25, 11β-[4-(N,N-dimethylamino)-phenyl]-21-chloro-19-nor-17α-Δ^4,9-pregnadiene-20-yne-17β-ol-3-one], the “relative affinity of tieing (ARL)” value under setting [1] is 0.

Turning to `C[C@]12C[C@H](c3ccc([N+](C)(C)[O-])cc3)C3=C4CCC(=O)C=C4CC[C@H]3[C@@H]1CC[C@@]2(O)C#CCl` [Example 26, N-oxide of 11β-[4-(N,N-dimethylamino)-phenyl]-21-chloro-19-nor-17α-Δ^4,9-pregnadiene-20-yne-17β-ol-3-one], the “relative affinity of tieing (ARL)” value under setting [1] amounted to 0.

For `CC#C[C@]1(O)CC[C@H]2[C@@H]3CCC4=CC(=O)C(C#N)(C#N)CC4=C3[C@@H](c3ccc(N(C)C)cc3)C[C@@]21C` [Example 9, 2,2-dicyano-11β-(4-dimethylaminophenyl)-17α-(prop-1-ynyl)-Δ^4,9-estradiene-17β-ol-3-one], the “relative affinity of tieing (ARL)” value runs as follows: (incubation 1 H at 0° C.) < 0,1; (incubation 24 H at 0° C.) < 0,1.

On to `C=CC[C@]1(O)CC[C@H]2[C@@H]3CCC4=CC(=O)CCC4=C3[C@@H](c3ccc(N(C)C)cc3)C[C@@]21C` [Example 37, 11β-[4-(N,N-dimethylamino)-phenyl]-17α-(prop-2-enyl)-Δ^4,9-estradien-17β-ol-3-one], for which, under setting [1], the “relative affinity of tieing (ARL)” value is on record as 0,3.

`C[C@]12C[C@H](c3ccc([N+](C)(C)[O-])cc3)[C@]34O[C@]35CCC(=O)C=C5CC[C@H]4[C@@H]1CC[C@@]2(O)C#CCl` [Example 27, N-oxide of 11β-[4-(N,N-dimethylamino)-phenyl]-9α,10α-epoxy-21-chloro-19-nor-17α-Δ^4-pregnene-20-yne-17β-ol-3-one]: the “relative affinity of tieing (ARL)” value under setting [1] is listed as 0.
